Experimental data taken from patent US20240133877A1, “PRODUCTS AND METHODS FOR MONITORING ADHERENCE TO NUCLEOSIDE REVERSE TRANSCRIPTASE INHIBITOR THERAPY” (priority 2017, published 2024).
Where “and” joins values, the source holds several entries; their conditions need not be identical. Equal entries are not always repeated.

Experiments:
pAb 313 = test: Cross reactivity of compounds spiked in buffer with pAb 313; format: binding, rabbit; details: compound spiked in buffer
Method: (§1) To identify which compounds were causing cross reactivity, potentially cross-reactive compounds (compounds with similar chemical structure to TFV) were spiked in buffer and tested with the pAbs. We tested 11 compounds, and their percent cross reactivity was calculated for each of the substances in Table 3 to each antibody.

pAb 312 = test: Cross reactivity of compounds spiked in buffer with pAb 312; format: binding, rabbit; details: compound spiked in buffer
Method: as §1

[1] = Urine and plasma TFV levels by LC-MS/MS in participants taking TAF; format: in vivo, human
Method: Blood and urine samples were collected from 3 cohorts of patients: (1) 10 HIV positive participants with suppressed virus on a TAF-based regimen, (2) 10 HIV- participants administered 1 dose of FTC/TAF followed by urine and plasma sampling for 7 days starting 1-3 hours post-dose, and (3) 10 HIV- participants administered 7 daily doses of FTC/TAF followed by urine and plasma sampling for 10 days starting 1-3 hours after the last dose. Samples were analyzed using liquid chromatography-tandem mass spectrometry (LC-MS/MS) with high sensitivity and specificity for TFV. Samples from cohort 2 were compared to a historical cohort administered one dose of FTC/TD F.

[2] = system: anti-TFV monoclonal antibody-HRP conjugates; test: Whole-blood TFV-DP ELISA with phosphatase; format: binding; details: for OD Value: replicates
Method: ELISA plates and reagents were equilibrated at room temperature. 50 μL of TFV-DP standard were plated onto a dilution plate in triplicate to generate a standard curve. TFV-DP standards were 250, 100, 50, 25, 10, 5, and 1 ng/mL, along with a blank. 50 μL of whole blood samples were added in duplicate or triplicate.
[…] 25 μL of conjugate solution containing anti-TFV monoclonal antibody-HRP conjugates was added to each well.
The dilution plate was covered and incubated at 25° C. for 30 minutes with shaking at 300-600 rpm. After incubation, the total volume of the dilution plate wells was transferred to an ELISA plate pre-coated with tenofovir-BSA conjugate (TFV-BSA). The ELISA plate was covered and incubated at 25° C. for 30 minutes with shaking at 300-600 rpm. The ELISA plate was washed with 350 μL per well of wash buffer for a total of 6 cycles, with a final aspirate.
100 μL of TMB substrate was added to each well. The ELISA plate was incubated in the dark at 25° C. for 30 minutes. 100 μL of stop solution was added to each well to quench the reactions. Absorbance was measured at 450 (primary) and 630 (reference) nm wavelengths within 15 minutes of quenching the reactions. OD was calculated by subtracting the reference absorbance from the primary absorbance. A standard curve was generated using a 4-parameter logistic regression or a 5-parameter logistic regression. The percent inhibition was calculated using the following formula: […]

[3] = system: anti-TFV antibodies conjugated to colloidal gold; test: Negative readout lateral flow assay, TFV-DP in PBS; format: binding
Text: […] Samples were loaded onto negative readout lateral flow assays. Lateral flow assays had anti-TFV antibodies conjugated to colloidal gold at the conjugate pad and TFV derivates striped at the test line. Visual reads were made at 10- and 15-minute time points.

[4] = system: anti-TFV antibodies conjugated to colloidal gold; test: Negative readout lateral flow assay, TFV-DP in whole blood; format: binding; set-up: Visual Read Results / Test Line Visual Read Results: scale not given here; details: for TFV-DP conversion to TFV: phosphatase 30 minutes; for Visual Read Results: WB with phosphatase
Method: […] Samples were diluted by 1:10 or 1:2 and loaded onto negative readout lateral flow assays. Visual reads were made at 10- and 15-minute time points.
Samples were loaded onto negative readout lateral flow assays. Visual reads were made at 10- and 15-minute time points. Results are shown in FIGS. 11A and 11B and Table 10.

[5] = red blood cells and dried blood spots; cited from earlier work
[6] = HIV-positive participants on TAF-based regimen (Cohort 1)

## Nc1ncnc2c1ncn2[C@H]1C[C@H](O)[C@@H](COP(=O)(O)OP(=O)(O)OP(=O)(O)O)O1 [2′ Deoxyadenosine 5′ Triphosphate]
pAb 313
  Cross Reactivity of 313 (vs TFV standard): None
pAb 312
  Cross Reactivity of 312 (vs TFV standard): None

## Nc1nc2c(ncn2[C@H]2C[C@H](O)[C@@H](COP(=O)(O)OP(=O)(O)OP(=O)(O)O)O2)c(=O)[nH]1 [2′Deoxyguanosine 5′ Triphosphate]
pAb 313
  Cross Reactivity of 313 (vs TFV standard): None
pAb 312
  Cross Reactivity of 312 (vs TFV standard): None

## Nc1ncnc2c1ncn2CCOCP(=O)(O)O [Adefovir]
pAb 313
  Cross Reactivity of 313 (vs TFV standard): Reactive (0.1%)
pAb 312
  Cross Reactivity of 312 (vs TFV standard): Reactive (0.1%)

## Nc1ncnc2c1ncn2[C@@H]1O[C@H](CO)[C@@H](OP(=O)(O)O)[C@H]1O [Adenosine 3′ Monophosphate]
pAb 313
  Cross Reactivity of 313 (vs TFV standard): Reactive (0.1%)
pAb 312
  Cross Reactivity of 312 (vs TFV standard): Reactive (0.1%)

## Nc1ncnc2c1ncn2[C@@H]1O[C@H](COP(=O)(O)O)[C@@H](O)[C@H]1O.O [Adenosine 5′ Monophosphate Monohydrate]
pAb 313
  Cross Reactivity of 313 (vs TFV standard): None
pAb 312
  Cross Reactivity of 312 (vs TFV standard): None

## Nc1ncnc2c1ncn2[C@@H]1O[C@H](COP(=O)([O-])OP(=O)([O-])OP(=O)(O)O)[C@@H](O)[C@H]1O.[Na+].[Na+] [Adenosine 5′ Triphosphate Disodium]
pAb 313
  Cross Reactivity of 313 (vs TFV standard): None
pAb 312
  Cross Reactivity of 312 (vs TFV standard): None

## Nc1ncnc2c1ncn2[C@@H]1O[C@H](CO)[C@@H](O)[C@H]1O [Adenosine]
pAb 313
  Cross Reactivity of 313 (vs TFV standard): Reactive (0.1%)
pAb 312
  Cross Reactivity of 312 (vs TFV standard): None

## Nc1ccn(C[C@@H](CO)OCP(=O)(O)O)c(=O)n1 [Cidofovir Hydrate]
pAb 313
  Cross Reactivity of 313 (vs TFV standard): Reactive (5%)
pAb 312
  Cross Reactivity of 312 (vs TFV standard): None

## Nc1nc2c(ncn2[C@@H]2O[C@H](COP(=O)([O-])[O-])[C@@H](O)[C@H]2O)c(=O)[nH]1.[Na+].[Na+] [Guanosine 5′ Monophosphate Disodium]
pAb 313
  Cross Reactivity of 313 (vs TFV standard): None
pAb 312
  Cross Reactivity of 312 (vs TFV standard): None

## CNc1ncnc2c1ncn2[C@@H]1O[C@H](COP(=O)(O)O)[C@@H](O)[C@H]1O [N6 Methyladenosine 5′ Monophosphate]
pAb 313
  Cross Reactivity of 313 (vs TFV standard): None
pAb 312
  Cross Reactivity of 312 (vs TFV standard): Reactive (0.1%)

## CNc1ncnc2c1ncn2[C@@H]1O[C@H](CO)[C@@H](O)[C@H]1O [N6 Methyladenosine]
pAb 313
  Cross Reactivity of 313 (vs TFV standard): None
pAb 312
  Cross Reactivity of 312 (vs TFV standard): None

## C[C@H](Cn1cnc2c(N)ncnc21)OCP(=O)(O)O [TFV, tenofovir]
[1]; 7 consecutive doses FTC/TAF, 1-3 hours after discontinuation of dosing
  urine TFV concentration: > 1000 ng/mL
[1]; 7 consecutive doses FTC/TAF, up to 7 days post discontinuation, in 8 out of 10 participants
  urine TFV level: > 100 ng/mL
[1]; HIV-positive participants on TAF-based regimen
  TFV concentration higher in urine than plasma: 2 logs
[1]; [6]
  plasma TFV concentration: 10 ng/mL
  urine TFV concentration: 1000 ng/mL
[1]; both HIV-negative cohorts (FTC/TAF), all time points
  plasma TFV concentration: ≤ 10 ng/mL
[1]; human, urine, oral, single dose FTC/TAF, for 6 days, in 8 of 10 participants, read-out: urine TFV concentration remaining
  concentration at 144 h: > 100 ng/mL
[1]; patients taking FTC/TAF
  persistence of TFV in urine at detectable concentrations: at least 7 days
[1]; single dose
  urine TFV concentrations after FTC/TAF versus historical cohort administered FTC/TDF: comparable
[1]; single dose FTC/TAF, HIV- subjects, 1-3 hours post-dose
  urine TFV concentration: 100 to 1000 ng/mL

## C[C@H](Cn1cnc2c(N)ncnc21)OCP(=O)(O)OP(=O)(O)OP(=O)(O)O [TFV-DP, tenofovir diphosphate]
[2]; No Phosphatase
  % Inhibition: 33.05%
  OD Average: 1.0986
  OD Value: 1.088 and 1.2148 and 1.2340 and 1.1083
[2]; Phosphatase
  % Inhibition: 76.63%
  OD Average: 0.3835
  OD Value: 0.3853 and 0.3923 and 0.3798 and 0.3766
[3]; 325 ng/mL, 10 minutes
  Visual Read Results (Enzyme Present): 5
  Visual Read Results (No Enzyme Present): 8
[3]; 325 ng/mL, 15 minutes
  Visual Read Results (Enzyme Present): 5/6
  Visual Read Results (No Enzyme Present): 8
[3]; 1300 ng/mL, 10 minutes
  Visual Read Results (Enzyme Present): 3
  Visual Read Results (No Enzyme Present): 7
[3]; 1300 ng/mL, 15 minutes
  Visual Read Results (Enzyme Present): 3
  Visual Read Results (No Enzyme Present): 7
[3]; 3250 ng/mL, 10 minutes
  Visual Read Results (Enzyme Present): 0/1
  Visual Read Results (No Enzyme Present): 6
[3]; 3250 ng/mL, 15 minutes
  Visual Read Results (Enzyme Present): 0/1
  Visual Read Results (No Enzyme Present): 6
[3]; phosphatase from sweet potato extract, 30 minutes
  TFV-DP conversion to TFV: Conversion of TFV-DP to TFV was observed
[3]; without phosphatase treatment
  TFV-DP conversion to TFV: No conversion of TFV-DP to TFV was observed
[4]; WB 975 and 325 ng/mL, diluted 1:10 or 1:2
  TFV-DP conversion to TFV: Conversion of TFV-DP to TFV was observed
[4]; WB 975 and 325 ng/mL, no further dilution
  TFV-DP conversion to TFV: Conversion of TFV-DP to TFV was observed
[4]; WB 1000-12000 ng/mL, diluted 1:10
  TFV-DP conversion to TFV: Conversion of TFV-DP to TFV was observed
[4]; WB diluted 1:10, 1000 ng/ml, 10 minutes
  Test Line Visual Read Results: 7
[4]; WB diluted 1:10, 1000 ng/ml, 15 minutes
  Test Line Visual Read Results: 7
[4]; WB diluted 1:10, 2000 ng/ml, 10 minutes
  Test Line Visual Read Results: 7
[4]; WB diluted 1:10, 2000 ng/ml, 15 minutes
  Test Line Visual Read Results: 7
[4]; WB diluted 1:10, 3000 ng/ml, 10 minutes
  Test Line Visual Read Results: 7
[4]; WB diluted 1:10, 3000 ng/ml, 15 minutes
  Test Line Visual Read Results: 7
[4]; WB diluted 1:10, 3250 ng/ml, 10 minutes
  Test Line Visual Read Results: 7
[4]; WB diluted 1:10, 3250 ng/ml, 15 minutes
  Test Line Visual Read Results: 7
[4]; WB diluted 1:10, 4000 ng/ml, 10 minutes
  Test Line Visual Read Results: 6
[4]; WB diluted 1:10, 4000 ng/ml, 15 minutes
  Test Line Visual Read Results: 6
[4]; WB diluted 1:10, 5000 ng/ml, 10 minutes
  Test Line Visual Read Results: 5
[4]; WB diluted 1:10, 5000 ng/ml, 15 minutes
  Test Line Visual Read Results: 5
[4]; WB diluted 1:10, 6000 ng/ml, 10 minutes
  Test Line Visual Read Results: 5
[4]; WB diluted 1:10, 6000 ng/ml, 15 minutes
  Test Line Visual Read Results: 5
[4]; WB diluted 1:10, 7000 ng/ml, 10 minutes
  Test Line Visual Read Results: 5
[4]; WB diluted 1:10, 7000 ng/ml, 15 minutes
  Test Line Visual Read Results: 5
[4]; WB diluted 1:10, 8000 ng/ml, 10 minutes
  Test Line Visual Read Results: 5
[4]; WB diluted 1:10, 8000 ng/ml, 15 minutes
  Test Line Visual Read Results: 5
[4]; WB diluted 1:10, 9000 ng/ml, 10 minutes
  Test Line Visual Read Results: 4
[4]; WB diluted 1:10, 9000 ng/ml, 15 minutes
  Test Line Visual Read Results: 4
[4]; WB diluted 1:10, 9750 ng/ml, 10 minutes
  Test Line Visual Read Results: 4
[4]; WB diluted 1:10, 9750 ng/ml, 15 minutes
  Test Line Visual Read Results: 4
[4]; WB diluted 1:10, 10000 ng/ml, 10 minutes
  Test Line Visual Read Results: 4
[4]; WB diluted 1:10, 10000 ng/ml, 15 minutes
  Test Line Visual Read Results: 4
[4]; WB diluted 1:10, 11000 ng/ml, 10 minutes
  Test Line Visual Read Results: 4
[4]; WB diluted 1:10, 11000 ng/ml, 15 minutes
  Test Line Visual Read Results: 4
[4]; WB diluted 1:10, 12000 ng/ml, 10 minutes
  Test Line Visual Read Results: 3
[4]; WB diluted 1:10, 12000 ng/ml, 15 minutes
  Test Line Visual Read Results: 3
[4]; diluted 1:10 or 1:2, 325 ng/ml, 10 minutes
  Visual Read Results: 6
[4]; diluted 1:10 or 1:2, 325 ng/ml, 15 minutes
  Visual Read Results: 6
[4]; diluted 1:10 or 1:2, 975 ng/ml, 10 minutes
  Visual Read Results: 4
[4]; diluted 1:10 or 1:2, 975 ng/ml, 15 minutes
  Visual Read Results: 4
[4]; no further dilution (Table 10), 325 ng/ml, 10 minutes
  Visual Read Results: 3/4
[4]; no further dilution (Table 10), 325 ng/ml, 15 minutes
  Visual Read Results: 3/4
[4]; no further dilution (Table 10), 975 ng/ml, 10 minutes
  Visual Read Results: 0
[4]; no further dilution (Table 10), 975 ng/ml, 15 minutes
  Visual Read Results: 0
[5]
  accumulation from the first dose to steady state: 25 fold
  half-life: 17 days
